Results on six molecules are retold here after US20230263900A1, “DENDRIMER-DRUG CONJUGATE” (priority 2020, published 2023).

The nature of data set [1]: Release of Remdesivir in PBS buffer (Release Method 1). In kind it is physicochemical. As to conditions: PBS buffer with 10% v/v DMSO, pH 7.4, 37° C. As to the method:
Release Method 1: An accurately weighed amount of the Remdesivir-dendrimer (10 mg) construct was dissolved in pH 7.4 PBS buffer:DMSO (9:1 v/v) and the volume made up to 20.0 mL in a volumetric flask to give a 0.5 mg/mL stock solution. The stock solution was aliquoted into several 2 mL screw-cap vials, the caps fitted and the vials heated at 37° C. The aliquoted solutions were analyzed at different time points by HPLC (HPLC Method 3). The concentration of Remdesivir RHa-1 was calculated by comparing the area under the peak associated with Remdesivir RHa-1 to a standard curve in MeCN:DMSO (9:1, v/v). The percentage of Remdesivir RHa-1 released is the percentage of available Remdesivir RHa-1 based on the loading of the construct as determined by ^1H NMR analysis (API Loading Method 1).
The extent to which the Remdesivir RHa-1 was released over time in PBS buffer (with 10% v/v DMSO) (pH 7.4) at 37° C. was determined for 5 constructs, RHa-17, RHa-15, RHa-11, RHa-5 and RHa-3 (Release Method 1) over 120 hours.
Trace amounts of other components were also observed (presumed to be degradation products of Remdesivir RHa-1). The area under the resolvable (separated) peaks associated with these degradants was also added to the peak area associated with released Remdesivir RHa-1.
BHALys [Lys]2[Lys]4[Lys]8[Lys]16[Lys]32[(α-NH-6N-TDA-Remdesivir)32(ε-NH-COPEG2000)32] RHa-5 contained 1.77% free Remdesivir RHa-1 at t=0 min. The value of released Remdesivir RHa-1 shown in FIG. 3 has been adjusted to take this into account.

A short description of data set [2]: Viscosity measurements (Viscosity Method 1). In kind it is physicochemical. As to conditions: 50 mg/mL Remdesivir equivalents in EtOH: Water (1:9 v/v). As to the method: Viscosities were measured on Anton Paar ViscoQC300 Viscometer using CC-12 cup.
Viscosity Method 1: A reference standard solution (Standard Type: RT500, CAS No. 63148-62-9, Paragon Scientific Ltd) was first recorded and found to be within the range of reported value (at 20° C.: found 556.6 cP, theoretical 551.0 cP; at 25° C.: found 503.3 cP, theoretical 498.6 cP). Accurately weighed quantities of respective conjugates were dissolved in EtOH:Water […] to make a 50 mg/mL Remdesivir equivalent solution (total volume 2.30-2.40 mL) and the viscosity of the solution was recorded at 20° C. and 25° C.
Viscosities of 2 formulations containing either RHa-5 or RHa-17 in EtOH: Water (1:9 v/v) were measured using Viscosity Method 1

The nature of a further data set: Solubility studies. In kind it is physicochemical. As to the method:
The solubility of BHALys[Lys]2[Lys]4[Lys]8[Lys]16[Lys]32[(α-NH-3′ O-Glu-Remdesivir)32(ε-NH-COPEG2000)32] RHa-3 in water was determined to be ≥200 mg/mL (or ≥43.6 mg/mL Remdesivir RHa-1) by adding water (250 μL) to 50.0 mg of BHALys [Lys]2[Lys]4[Lys]8[Lys]16[Lys]32[(α-NH-3′ O-Glu-Remdesivir)32(ε-NH-COPEG2000)32] and swirling briefly. After 2 min, the resulting solution was visually inspected for particulates and found to be a clear solution (see FIG. 2). Solutions shown are 40 mg/ml Remdesivir equivalents (equivalent to 200 mg/ml of conjugate RHa-3).
The solubility of BHALys[Lys]2[Lys]4[Lys]8[Lys]16[Lys]32[(α-NH-6N-TDA-Remdesivir)32(ε-NH-COPEG2000)32] RHa-5, in EtOH:Water (1:9 v/v) was determined to be ≥543 mg/mL (or ≥107 mg/mL Remdesivir RHa-1) by adding water EtOH:Water (1:9 v/v, 400 μL) to 380 mg of RHa-5. The mixture was swirled briefly and left to stand at rt. After 1.5 h the resulting solution (volume recorded=700 μL) was visually inspected for particulates and found to be a clear solution.
The solubility of BHALys[Lys]2[Lys]4[Lys]8[Lys]16[Lys]32[(α-NH-6N-TDA-Remdesivir)32(ε-NH-COPEG1000)32] RHa-17 in EtOH:Water (1:9 v/v) was determined to be ≥354* mg/mL (or ≥85 mg/mL Remdesivir RHa-1) by adding EtOH:Water (1:9 v/v, 958 μL) portionwise to 525 mg of RHa-17, over a period of 1.5 h with intermittent swirling. The resulting solution was visually inspected for particulates and found to be a clear solution.
(*Total volume not recorded. Assumes 1 mg construct contributes to 1 μL of final solution (i.e., total volume of final solution=1483 μL)).

Details of data set [3]: species or system rats. As to conditions: rat, in vivo. As to the method:
The dendrimer BHALys[Lys]2[Lys]4[Lys]8[Lys]16(PEG2000)32 was constituted to 10 mg/ml in PBS and stored at −20° C. until required. The construction of the dendrimer was as described previously (Kaminskas L M, et al Mol Pharm. 2008 May-June; 5(3):449-63).
Rats were intravenously administered 1 ml of dendrimer in sterile saline over 2 mins. […] For the pharmacokinetic evaluation of dendrimer administered to the lungs as an aerosolized dose, rats were cannulated only via the right carotid artery. Rats were administered 1 mg of dendrimer in 100 μl saline via intratracheal insertion of the Penn Century micro spray aerosol device to the lungs of rats under isoflurane anaesthesia. […] Plasma, urine, feces and lungs were analysed for radiolabel via liquid scintillation counting
(n=4-5 rats) and data is normalized to 5 mg/kg dendrimer. […] Data in Figure B represents mean±s.d. (n=4 rats) 7 days after the pulmonary dose.

For data set [4] the following is noted: cited from earlier work.
Another data set can be described thus: in vivo. As to the method:
The ability to deliver dendrimer-drug conjugates via the pulmonary route was evaluated.
Male Sprague Dawley (SD) rats (8-9 weeks, 270-320 g) were obtained from Monash Animal Services (VIC, Australia). Female F344 rats (8-10 weeks) were supplied by Animal Resources Centre (Perth, Australia).
Blood samples and urine were then collected for up to 5 days. […] At the completion of the study, bronchoalveolar lavage fluid (BALF), lungs, liver, heart, spleen, kidneys and pancreas were collected from rats for biodistribution analysis. BALF was collected via the intratracheal perfusion of 3×5 ml saline Alveolar macrophages were isolated from BALF via centrifugation at 600×g for 10 mins. […] Plasma, urine, feces, and organs were analysed for radiolabel via liquid scintillation counting. Total doxorubicin in plasma, BALF and lung tissue in pulmonary dosed rats was analysed via a fluorescence HPLC (Kaminskas L M, et al, Nanomedicine. 2012 January; 8(1):103-11).
Data are represented as mean±s.d. (n=3-7).

Where [5] appears, read: male, Sprague-Dawley, rat, in vivo.
Where [6] appears, read: male, Sprague-Dawley, rat, in vivo, inhaled or intranasal, 0.6 mg.

The term Cmax denotes the highest concentration seen after dosing. As a reminder, the Tmax is the time from dosing to the highest level. For orientation: half-life means the time in which the quantity being followed falls by half. Usually AUC stands for concentration integrated over time. Low values mean low exposure, high ones high exposure.

Take “BHALys[Lys]2[Lys]4[Lys]8[Lys]16[Lys]32[(α-NH-6N-TDA-Remdesivir)32(ε-NH-COPEG1000)32] [RHa-17]”: the “Approx. Time taken for 50% Remdesivir release” value in data set [1] is ~48 h. Moreover, in data set [2], the “Viscosity at 20° C.” value stood at 38.99 cP and the “Viscosity at 25° C.” value is listed as 29.32 cP. Besides, the “Solubility in EtOH:Water (1:9 v/v)” value in “Solubility studies” (EtOH:Water (1:9 v/v), conjugate mass, rt) is ≥ 354 mg/mL. For the same molecule, the “Solubility in EtOH:Water (1:9 v/v), as Remdesivir RHa-1” value in the data set “Solubility studies” (EtOH:Water (1:9 v/v), expressed as Remdesivir RHa-1) is reported as ≥ 85 mg/mL.

Take “BHALys[Lys]2[Lys]4[Lys]8[Lys]16(PEG2000)32”: the “Bioavailability after lung delivery” value in data set [3] was 2.4±3.3%.

As for “BHALys[Lys]2[Lys]4[Lys]8[Lys]16[Lys]32[(α-NH-3′O-Glu-Remdesivir)32(ε-NH-COPEG2000)32] [RHa-3]”, the “Approx. Time taken for 50% Remdesivir release” value in data set [1] was >120 h. In “Solubility studies” (water, conjugate mass, visual inspection after 2 min), the Solubility in water is ≥ 200 mg/mL. Further, the “Solubility in water, as Remdesivir RHa-1” value in the data set “Solubility studies” (water, expressed as Remdesivir RHa-1) is ≥ 43.6 mg/mL.

Consider “BHALys[Lys]2[Lys]4[Lys]8[Lys]16[Lys]32[(α-NH-3′O-DGA-Remdesivir)32(ε-NH-COPEG2000)32] [RHa-11]”, for which, in data set [1], the “Approx. Time taken for 50% Remdesivir release” value was ~3 h.

Regarding `N#C[C@@]1(c2ccc3c(N)ncnn23)O[C@H](CO)[C@@H](O)[C@H]1O` [GS-441524], the AUC0-24 in data set [4] (IV infusion of 200 mg Remdesivir, healthy human subjects) was 7.7 µM·h. The Cmax in data set [4] (after 200 mg dose of Remdesivir) is 0.152 µg/mL. In addition, the Peak plasma concentration result in data set [4] (after 30 minutes infusion of Remdesivir) is “about 150 ng/ml”.

For the molecule `COc1cccc2c1C(=O)c1c(O)c3c(c(O)c1C2=O)C[C@@](O)(C(=O)CO)C[C@@H]3O[C@H]1C[C@H](N)[C@H](O)[C@H](C)O1` [Doxorubicin, doxorubicin], in the data set “in vivo” (setting [5]), the “Fabs 0-∞, doxorubicin” value came out at 83 ± 9% and the “Kel, doxorubicin” value was 0.132 ± 0.010 ^−h. Further, in “in vivo” (setting [6]), the Tmax was found to be 6 ± 3 min and the half-life was 5 ± 0.4 h. In “in vivo” (male, Sprague-Dawley, rat, in vivo, iv, 0.75 mg/kg), this molecule registered an AUC of 0.21 ± 0.04 µg·h/mL. In the data set “in vivo” (male, Sprague-Dawley, rat, plasma, inhaled or intranasal, 0.6 mg), this molecule showed an area under the curve (AUC) of 0.17 ± 0.02 µg·h/mL. In addition, the “Kel, doxorubicin” value in “in vivo” (rats, intravenous, doxorubicin normalized to 0.75 mg/kg) was 0.518 ± 0.312 ^−h.
